In paper PMC10945332, “Precision peptide theranostics: developing N- to C-terminus optimized theranostics targeting cholecystokinin-2 receptor” (Theranostics, 2024):
Where two headings read alike, the source gives them in different places. Where a SMILES comes first, the peptide text is derived from it. [ ]: non-standard residue; d: D form. The star is where a group is joined. DOTA = O=C(O)CN1CCN(CC(=O)O)CCN(CC(=O)*)CCN(CC(=O)O)CC1; 1Nal = N[C@@H](Cc1cccc2ccccc12)C(=O)O; NMeNle = CCCC[C@H](NC)C(=O)O; Sar = CNCC(=O)O

Assays:
[1] = target: T1, human CCK2R (Homo sapiens, UniProt P32239); assay: Competitive binding against [177Lu]Lu-DOTA-CP04 in A431-CCK2R cells; details: for IC50: N-terminal free linear peptides, vs [177Lu]Lu-DOTA-CP04 in A431-CCK2R cells, average of 2-4 biological replicates, read-out: IC50
T1 construct: stably transfected to over-express the human full-length CCK2R (A431-CCK2R); expressed in transfected cells
T1 sequence (P32239 1-447): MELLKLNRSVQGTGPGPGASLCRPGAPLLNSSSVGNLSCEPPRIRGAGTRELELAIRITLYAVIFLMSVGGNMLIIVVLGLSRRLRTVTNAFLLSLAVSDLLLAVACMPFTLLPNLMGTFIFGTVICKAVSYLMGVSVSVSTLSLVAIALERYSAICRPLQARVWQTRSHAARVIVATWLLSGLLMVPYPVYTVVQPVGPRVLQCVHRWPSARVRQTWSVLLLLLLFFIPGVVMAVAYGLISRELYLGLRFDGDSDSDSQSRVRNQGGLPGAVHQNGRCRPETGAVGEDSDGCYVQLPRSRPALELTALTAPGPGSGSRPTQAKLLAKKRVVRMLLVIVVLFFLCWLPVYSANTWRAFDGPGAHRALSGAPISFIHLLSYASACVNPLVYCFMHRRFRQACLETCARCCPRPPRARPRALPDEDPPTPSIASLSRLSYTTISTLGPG
Experimental: Materials and Methods: Biology […]
In Vitro CCK2R-Ligand Competitive Binding Assays
All CCK2R binding experiments were conducted using A431 (human epidermoid carcinoma) […]
cells stably transfected to over-express the human full-length CCK2R (A431-CCK2R) (gifted […]
by Dr. Elisabeth von Guggenberg, Medizinische Universität Innsbruck).[41] As a negative […]
control, A431 cells stably transfected with an empty vector were analysed simultaneously […]
(A431-EV). All A431 cells were maintained in DMEM (Gibco, Australia) media supplemented […]
with 10% foetal calf serum and 250 µg/mL G418 as described previously.[32]
The affinity of all peptides for the CCK2R was evaluated using competitive binding assays […]
Briefly, 48 hours before the experiment […]
cells were plated at a density of 300,000 cells per well in 12 well plates. On the day of the […]
experiment, linear peptides were diluted in DMEM supplemented with 1% foetal calf serum to […]
DOTA-CP04 was added to each dilution. Cells were washed twice in ice-cold binding buffer […]
(DMEM supplemented with 1% foetal calf serum) and resuspended in 1 mL of the pre-prepared […]
peptide mix before being incubated at room temperature for 1 hour. Post-incubation the media […]
was removed and kept for analysis (unbound fraction) and the cells were washed twice in ice- […]
cold PBS which was pooled with the unbound fraction. Finally, 1 M NaOH (150µL) was added […]
to the wells and allowed to incubate for 5 min before lysates were collected (bound fraction).
A small volume of lysate was kept aside to determine protein concentration using the Pierce® BCA protein assay kit (Thermo Fisher, Australia). All samples were analysed using the Perkin […]
normalised according to protein concentration. Half maximal inhibitory concentration (IC50) was determined using nonlinear regression calculated using Gr aphPad Prism Software (GraphPad Software, California, USA). […]

[2] = type: physicochemical
Experimental: Lipophilicity, expressed as the octanol-water partition coefficient, constitutes an important property in drug action, influencing both pharmacokinetic and pharmacodynamics processes. The distribution coefficient (LogD7.4) of [^68Ga]Ga-DOTA-peptides was determined by measuring radioactivity distribution in the aqueous phase (phosphate buffer pH7.4) and the organic phase (n-octanol). […]
To determine the distribution coefficient (logD 7.4), 68Ga radiolabeled peptides [68Ga]Ga-DOTA-GA4, [68Ga]Ga-DOTA-GA7, and [68Ga]Ga-DOTA-GA11–GA13 were diluted to approximately 20 pmol/mL in PBS (pH 7.4) and an equal volume of n-octanol was added. The mixture was vortexed vigorously for 10 cycles of 1 min at room temperature before being centrifuged for 6 min to separate the two phases. Equal volumes from each phase were aliquoted into individual counting tubes and analysed for 1 min using the Perkin Elmer 2480 Wizard2™ gamma counter (PerkinElmer, Massachusetts, USA). The distribution coefficient was calculated using the following equation LogD = […]. […]

[3] = mouse, in vivo
Experimental: (§1) In order to assess these promising ligands as potential theranostics, the library of [^68Ga]Ga-DOTA-peptides was evaluated using static small animal PET imaging and quantifying biodistribution studies. This study was performed to investigate tumor uptake as well as the accumulation of radioligands in other organs. Mice bearing A431-CCK2R tumors were imaged at 1- and 2 hours post tracer injection, and tracer biodistribution was evaluated at the 1 hour and 2.5 hour time points to quantify tumor uptake and retention. […]
(§2) Small Animal PET Imaging and Biodistribution Studies
(§3) Female NSG mice (age 11-14 weeks) were sourced from Animal Resources Centre, (Canning Vale, Western Australia) and were inoculated subcutaneously on the right flank with 1-3 x 106 […]
(§4) A431-CCK2R cells in PBS:Matrigel (1:1). […]
(§5) Mice were assigned to imaging and/or biodistribution groups (tumour volumes: 119-327 mm3).
(§6) The respective 68Ga labelled tracer (1.63–3.81 MBq, 170µL, 13.7–14.2 pmoles) containing vehicle solution (75µL, DMSO:Tween 80: water, 2:2:6 v/v/v) was then administered to mice intravenously via tail vein injection. Three mice were euthanized for biodistribution 1 hour post injection (n=3) and selected tissues were excised, weighed, and counted using a Capintec (Captus 4000e) gamma counter. Three mice were anaesthetised using 1.5% isoflurane and imaged at 1 hour (n=3) and 2 hours (n=3) with a G8 Small Animal PET/CT scanner (Perkin […]
(§7) Elmer/Sofie Biosciences). A 10 min static PET scan was acquired, followed immediately by a CT scan (Supplementary Data, pS51–S55). PET images were acquired using the G8 acquisition engine software and reconstructed using a 3D maximal likelihood and expectation maximization (ML-EM) algorithm. PET images were analysed using VivoQuant software, version 3.0 (inviCRO Imaging Services and Software) to quantify maximum standardised uptake value in regions of interest (SUVmax). Background regions for imaging experiments were calculated by quantitating mean standardised uptake value (SUVmean) of the abdomen and gut region. The region of interest was selected due to low uptake in abdomen/gut during imaging. After imaging the 2-hour time point, mice organs were harvested for biodistribution […]
(§8) For blocking CCK2R binding a solution of N-[(3R)-2,3-Dihydro-1-[2-(2-methylphenyl)-2-oxoethyl]-2-oxo-5-phenyl-1H-1,4-benzodiazepin-3-yl]-N′-(3-methylphenyl)-urea (YM022; Sigma Aldrich) was used. YM022 (75µL of a 1 mg/ml solution constituting DMSO:Tween 80: water, 2:2:6 v/v/v) was added to the respective 68Ga labelled tracer (1.41–3.61 MBq, 100 µL, 13.7–14.2 pmoles) and this mixture ([…]) was administered in three mice intravenously via tail vein injection and organs harvested at 1 hour post injection for biodistribution analysis, as above.
(§9) All animal experiments were performed with the approval of the Peter MacCallum Cancer Centre Animal Experimentation Ethics Committee and in accordance with the Australian code for the care and use of animals for scientific purposes, 8th Edition, 2013 (AEEC Approval

[4] = type: in vitro ADME, mouse; details: mouse, tissue homogenate
Experimental: Metabolic stability is an important determinant of the efficacy of peptide radiopharmaceuticals and their progression as promising theranostic candidates. In vitro, metabolic degradation through hepatic and renal enzymes can be assessed by utilizing liver and kidney tissue homogenates. Radiolabeled peptides [^68Ga]Ga-DOTA-GA4, and D-Ala substituted variants [^68Ga]Ga-DOTA-GA7, [^68Ga]Ga-DOTA-GA11-GA13 were incubated in liver and kidney mouse homogenates, in human serum at 37°C, and in HEPES buffer (pH 7.4) as a negative control. Following a time course experiment, the metabolites were analyzed using HPLC to quantify the % breakdown of the respective parent peptide. […]
To assess the stability of 68Ga radiolabeled peptides against enzymatic degradation, duplicate samples (750-900 pmol/mL, 2-5MBq) were incubated at 37 ℃ with pooled human serum, 15% […]
mouse kidney homogenate, 30% mouse liver homogenate or 20 mM HEPES, pH 7.3 (control).
Human blood was collected, and serum prepared using SSTII advance vacutainer tubes according to the manufacturer’s instructions (Becton Dickinson, New Jersey, USA). Mouse kidney and liver homogenates were prepared by washing the tissues in ice-cold HEPES buffer, pH 7.3 and placing them in pre-chilled tubes containing HEPES buffer and 2.38 mm metal beads (Mo-Bio Laboratories, Hilden, Germany). Tissues were homogenised using the PowerLyzer24 homogeniser (Qiagen, Hilden, Germany) according to the manufacturer’s instructions. 68Ga radiolabeled peptides were then incubated with the various lysates at 37 ℃ and samples were collected at 15, 30, 60 and 90 min. Reactions were terminated by addition of an equal volume of acetonitrile and centrifugation for 2 min at 15,000 rpm. Supernatants were diluted in water before being analysed by HPLC using a Kinetex C18 XB column (5µm

[5] = in vivo; details: female, NSG, mouse, iv, total radioactivity
Experimental: as §1, §2, §3, §4, §5, §6, §7, §8, §9

SMILES: CCCC[C@@H](C(=O)N[C@@H](CC(=O)O)C(=O)N[C@@H](Cc1cccc2ccccc12)C(N)=O)N(C)C(=O)[C@H](Cc1c[nH]c2ccccc12)NC(=O)CN(C)C(=O)[C@H](Cc1ccc(O)cc1)NC(=O)[C@H](C)NC(=O)[C@@H](CCC(=O)O)NC(=O)[C@@H](CCC(=O)O)NC(=O)[C@@H](CCC(=O)O)NC(=O)[C@@H](CCC(=O)O)NC(=O)[C@@H](C)NC(=O)[C@H](N)CCC(=O)O [GA6] (H-[dE][dA][dE][dE][dE][dE]AY[Sar]W[NMeNle]D[1Nal]-NH2)
- IC50 [1]: 1.23 nM

SMILES: CCCC[C@@H](C(=O)N[C@@H](CC(=O)O)C(=O)N[C@@H](Cc1cccc2ccccc12)C(N)=O)N(C)C(=O)[C@H](Cc1c[nH]c2ccccc12)NC(=O)CN(C)C(=O)[C@H](Cc1ccc(O)cc1)NC(=O)[C@H](C)NC(=O)[C@@H](CCC(=O)O)NC(=O)[C@@H](CCC(=O)O)NC(=O)[C@@H](CCC(=O)O)NC(=O)[C@@H](C)NC(=O)[C@@H](CCC(=O)O)NC(=O)[C@H](N)CCC(=O)O [GA7] (H-[dE][dE][dA][dE][dE][dE]AY[Sar]W[NMeNle]D[1Nal]-NH2)
- IC50 [1]: 0.184 nM
- fold improvement of activity over CP04 ([1]; linear peptides): greater than 10 fold
- fold improvement of affinity over GA1 ([1]; linear peptides): ~2 fold

SMILES: CCCC[C@@H](C(=O)N[C@@H](CC(=O)O)C(=O)N[C@@H](Cc1cccc2ccccc12)C(N)=O)N(C)C(=O)[C@H](Cc1c[nH]c2ccccc12)NC(=O)CN(C)C(=O)[C@H](Cc1ccc(O)cc1)NC(=O)[C@H](C)NC(=O)[C@@H](CCC(=O)O)NC(=O)[C@@H](CCC(=O)O)NC(=O)[C@@H](C)NC(=O)[C@@H](CCC(=O)O)NC(=O)[C@@H](CCC(=O)O)NC(=O)[C@H](N)CCC(=O)O [GA8] (H-[dE][dE][dE][dA][dE][dE]AY[Sar]W[NMeNle]D[1Nal]-NH2)
- IC50 [1]: 1.62 nM

SMILES: CCCC[C@@H](C(=O)N[C@@H](CC(=O)O)C(=O)N[C@@H](Cc1cccc2ccccc12)C(N)=O)N(C)C(=O)[C@H](Cc1c[nH]c2ccccc12)NC(=O)CN(C)C(=O)[C@H](Cc1ccc(O)cc1)NC(=O)[C@H](C)NC(=O)[C@@H](C)NC(=O)[C@@H](CCC(=O)O)NC(=O)[C@@H](CCC(=O)O)NC(=O)[C@@H](CCC(=O)O)NC(=O)[C@@H](CCC(=O)O)NC(=O)[C@H](N)CCC(=O)O [GA10] (H-[dE][dE][dE][dE][dE][dA]AY[Sar]W[NMeNle]D[1Nal]-NH2)
- IC50 [1]: 1.62 nM

SMILES: CCCC[C@@H](C(=O)N[C@@H](CC(=O)O)C(=O)N[C@@H](Cc1cccc2ccccc12)C(N)=O)N(C)C(=O)[C@H](Cc1c[nH]c2ccccc12)NC(=O)CN(C)C(=O)[C@H](Cc1ccc(O)cc1)NC(=O)[C@H](C)NC(=O)[C@@H](CCC(=O)O)NC(=O)[C@@H](CCC(=O)O)NC(=O)[C@@H](CCC(=O)O)NC(=O)[C@@H](C)NC(=O)[C@@H](CCC(=O)O)NC(=O)[C@@H](CCC(=O)O)NC(=O)CN1CCN(CC(=O)O)CCN(CC(=O)O)CCN(CC(=O)O)CC1 [[^68Ga]Ga-DOTA-GA7, metal not drawn] ({DOTA}-[dE][dE][dA][dE][dE][dE]AY[Sar]W[NMeNle]D[1Nal]-NH2)
- logD [2]: -2.88 ± 0.09
- tissue uptake at 1 h ([3]; 3 mg/kg, Uptake in A431-CCK2R Tumors, 1 hr Blocked): 2.76 ± 0.14 %ID/g
- tissue uptake at 1 h ([3]; Uptake in A431-CCK2R Tumors, 1 hr): 5.71 ± 1.5 %ID/g
- tissue uptake at 2.5 h ([3]; Uptake in A431-CCK2R Tumors, 2.5 hr): 7.36 ± 1.16 %ID/g
- tissue uptake at 1 h ([3]; Uptake in Organs: Blood): 0.68 ± 0.31 %ID/g
- tissue uptake at 1 h ([3]; Uptake in Organs: Heart): 0.3 ± 0.02 %ID/g
- tissue uptake at 1 h ([3]; Uptake in Organs: Kidneys): 8.67 ± 0.8 %ID/g
- tissue uptake at 1 h ([3]; Uptake in Organs: Liver): 0.3 ± 0.01 %ID/g
- tissue uptake at 1 h ([3]; Uptake in Organs: Lungs): 0.57 ± 0.03 %ID/g
- tissue uptake at 1 h ([3]; Uptake in Organs: Muscle): 0.12 ± 0.02 %ID/g
- tissue uptake at 1 h ([3]; Uptake in Organs: Spleen): 0.24 ± 0.02 %ID/g
- tissue uptake at 1 h ([3]; Uptake in Organs: Stomach): 2.22 ± 0.14 %ID/g
- half-life ([4]; Half-life (t1/2) in Kidney Homogenate): 3.76 h
- half-life ([4]; Half-life (t1/2) in Liver Homogenate): 5.87 h
- tissue to tissue ratio at 1 h [5]: 17.3 ± 1.84
- SUV at 1 h ([5]; SUVmax): 0.65 SUV
- SUV at 2 h ([5]; SUVmax): 0.61 SUV
